Series [1] concerns LPS. In words: Surface plasmon resonance of peptide-LPS interaction. The class given is binding. The note with it: peptide on CM5 chip, LPS 3.125–50 µg/mL, 20 mM Tris, 100 mM NaCl, pH 7.4. How it is done:
Figure 3 (A) The combining ability of OIR3 and gramicidin S (GS; 0.5 μM, 1 μM, 2 μM, […], 8 μM, 16 μM and 32 μM) with lipopolysaccharide (LPS). (B) SPR spectroscopy of the interaction kinetics of the peptides and LPS. The peptides were immobilized on a CM5 sensor chip as a ligand, and LPS was diluted in a series of concentrations (3.125, 6.25, 12.5, 25 and 50 μg/mL). Data shown are three independent experiments.
Surface plasmon resonance (SPR) is a method commonly used to study protein–protein interactions. The main advantage of SPR is that it provides the ability to measure the binding affinities and association/dissociation kinetics of complexes in real time, in a label-free environment, and using relatively small quantities of materials. Real-time binding interactions between peptides and LPS were measured by using the Biacore 3000 instrument (GE Healthcare, Waukesha, Wisconsin, USA). In […] sodium acetate buffer (pH 5.5), the cyclic antimicrobial peptides OIR3, IR3, DIR3 and GS were diluted to an optimum fixed concentration of 25.6 µM, and then covalently immobilized on the CM5 sensor chip; nearly 1100 resonant units (RU) of the peptide were captured. All measurements were performed in 20 mM Tris buffer (pH 7.4) containing 100 mM NaCl. […]
(In general: Surface plasmon resonance follows binding to a sensor surface in real time, without labels.)

Series [2] concerns human red blood cells (hRBCs). In words: Hemolysis assay. The class given is cell-based. Conditions: red cells of human, 1 h.
The test system of series [3] is S. aureus 25923. In words: microbe, parasite or virus in culture. The class given is cell-based, Staphylococcus aureus. The note with it: 25923, 20 h.
Series [4] concerns S. aureus 29213. In words: microbe, parasite or virus in culture. The class given is cell-based, Staphylococcus aureus. Conditions: 29213, 20 h.
The conditions of series [5]: RP-HPLC used as measure of hydrophobicity; 4.6 mm × 250 mm Venusil MP C18-5 column, 220 nm, linear acetonitrile gradient 15% to 45% in 30 min, 0.1% trifluoroacetic acid, 1 mL/min. An excerpt:
In this experiment, cyclic, linear and D-proline antimicrobial peptides were designed based on the IR-rich template sequence (IR)nP(IR)nP (n = 1, 2 and 3). […] The […] molecular weights of the peptides were identified using mass spectrometry. […] The hydrophobicity of the peptides in solution is dependably mirrored by the HPLC retention times.

Values after ≈ are worked out from the molar mass of the structure shown. Where a SMILES comes first, the peptide text is derived from it. [ ]: non-standard residue; d: D form. Orn = NCCC[C@H](N)C(=O)O Bounds are passed on as bounds.

For `CC[C@H](C)[C@@H]1NC(=O)[C@H](CCCNC(=N)N)NC(=O)[C@H]([C@@H](C)CC)NC(=O)[C@@H]2CCCN2C(=O)[C@H](CCCNC(=N)N)NC(=O)[C@H]([C@@H](C)CC)NC(=O)[C@H](CCCNC(=N)N)NC(=O)[C@H]([C@@H](C)CC)NC(=O)[C@H](CCCNC(=N)N)NC(=O)[C@H]([C@@H](C)CC)NC(=O)[C@@H]2CCCN2C(=O)[C@H](CCCNC(=N)N)NC(=O)[C@H]([C@@H](C)CC)NC(=O)[C@H](CCCNC(=N)N)NC1=O` [OIR3] (cyclo(IRIRIRPIRIRIRP)), the “binding of LPS to immobilized peptide (SPR)” value in series [1] is on record as “rapidly binds”. Moreover, the “MHC5, minimum hemolytic concentration that induced ≥5% hemolysis” value in series [2] was above 128 µM. The MIC in series [3] and in series [4] was 4 µM (≈ 7.24 µg/mL) in each case. The “RT (retention time)” value in series [5] was 12.64 min.
With `CC(C)C[C@@H]1NC(=O)[C@H](CCCN)NC(=O)[C@H](C(C)C)NC(=O)[C@@H]2CCCN2C(=O)[C@@H](Cc2ccccc2)NC(=O)[C@H](CC(C)C)NC(=O)[C@H](CCCN)NC(=O)[C@H](C(C)C)NC(=O)[C@@H]2CCCN2C(=O)[C@@H](Cc2ccccc2)NC1=O` [GS, gramicidin S, reference compound] (cyclo(V[Orn]L[dF]PV[Orn]L[dF]P)), the “binding of LPS to immobilized peptide (SPR)” value in series [1] is “weak binding to LPS at high concentrations and almost no binding at the low concentrations”. In addition, the “MHC5, minimum hemolytic concentration that induced ≥5% hemolysis” value in series [2] stood at 8 µM. In addition, the MIC in series [3] and in series [4] was 2 µM (≈ 2.28 µg/mL) throughout.

Values taken from article PMC6928678, “Simplified Head-to-Tail Cyclic Polypeptides as Biomaterial-Associated Antimicrobials with Endotoxin Neutralizing and Anti-Inflammatory Capabilities” (International Journal of Molecular Sciences, 2019).
